Assay results reported in patent US9399631B2, “Polyphenol proteasome inhibitors, synthesis, and methods of use” (UNIVERSITY OF SOUTH FLORIDA, priority 2003, dated 2016).

Legend:
Jurkat T cells = assay: Western blot of proteasome target proteins in Jurkat T cells; type: cell-based, human; conditions: for increase of IκB-α protein levels: at 6 hours
Protocol: (§1) Cell Culture, Cell Extract Preparation, and Western Blot Assay. Human leukemia Jurkat T and prostate cancer LNCaP cells were cultured in RPMI 1640 medium supplemented with 10% fetal calf serum, 100 units/ml of penicillin, and 100 μg/ml streptomycin. Human immortalized, non-transformed NK cells (YT cell line) (38) were cultured in RPMI 1640 supplemented with 1 mM MEM sodium pyruvate solution, 0.1 mM MEM non-essential amino acids solution, 10% fetal calf serum. 100 units/ml penicillin, and 100 μg/ml streptomycin. Normal (WI-38) and simian virus 40 (SV40)-transformed (VA-13) human fibroblasts were grown in Dulbecco's modified Eagle's medium supplemented with 10% fetal calf serum, 100 units/ml of penicillin and 100 μg/ml of streptomycin. All cells were maintained at 37° C. in a humidified incubator with an atmosphere of 5% CO2. A whole cell extract was prepared in accordance with An et al. (An, B. et al. Cell Death Differ, 1998, 5:1062-75). Briefly, cells were harvested, washed with PBS twice, and homogenized in a lysis buffer [50 mM Tris-HCl (pH 8.0), 5 mM EDTA, 150 mM NaCl, 0.5% NP-40, 0.5 mM phenylmethylsulfonyl fluoride, and 0.5 mM dithiothreitol] for 30 min at 4° C. Afterwards, lysates were centrifuged at 12,000×g for 15 min at 4° C., and the supernatants were collected as whole cell extracts. Equal amounts of protein extract (60 μg) were resolved by SDS-polyacrylamide gel electrophoresis and transferred to a nitrocellulose membrane using a Semi-Dry Transfer system (BIO-RAD, Hercules, Calif.). Jurkat T, LNCaP, or DU-145 cells were treated with various concentrations of synthetic or natural tea polyphenols for indicted hours. The enhanced chemiluminescence (ECL) Western blot analysis was then performed using specific antibodies to the proteins of interest (p^27kip, IκB-α, PARP, Bax or actin). The ratio of p27 or IκB-α to the corresponding actin was determined by scanning intensities of the protein bands.
Immortalized, non-transformed normal natural killer (NK) cells (YT line) (Drexler, H. G. et al. Leuk Res, 2000, 24:881-911) and human leukemic Jurkat T cells (as a control) were treated with either (−)-EGCG (as a comparison) or (−)-EGCG-amide for up to 12 hour. […] In contrast, IκB-α expression in non-transformed NK cells was unchanged during each treatment, although the basal level (and the mobility) of IκB-α protein was higher in NK cells (FIGS. 13A and 13B).
Having discovered that the synthetic GTP analogs are potent and specific inhibitors of the proteasomal chymotrypsin-like activity in vitro (FIGS. 16A, 17A, 17B, and 17C), it was then determined whether the synthetic compounds could also be effective in inhibiting intact tumor cell proteasome activity. Because inhibition of the proteasome activity in tumor cells would result in increased levels of proteasome target proteins, levels of p27 and IκB-α proteins were measured by Western blot assay in Jurkat T cells treated with each GTP. After a 12 hour treatment, (+)-EGCG at 10 μM accumulated p27 and IκB-α levels by 3.5- and 3.1-fold, respectively (FIG. 18A). In comparison, the natural (−)-EGCG accumulated p27 and IκB-α, to a slightly lesser extent, by 2.7- and 2.1-fold, respectively (FIG. 18A). In addition, synthetic (+)-GCG increased p27 and IκB-α levels by 3.7- and 3.3-fold, respectively, similar to the results from (−)-GCG treatment (FIG. 18A).

VA-13 cells = assay: Western blot of p27 in SV40-transformed VA-13 fibroblasts; type: cell-based, human; conditions: 25 μM
Protocol: as §1
Normal WI-38 and SV40-transformed VA-13 cell lines were treated with 25 μM of (−)-EGCG, (−)-EGCG-amide, (+)-EGCG, (+)-EGCG-amide, or GTP-1 for either 12 hours or 36 hours.

Structure (SMILES) | accumulation of IκB-α levels (Jurkat T cells; 10 μM, 12 hour treatment) [fold] | accumulation of p27 levels (Jurkat T cells; 10 μM, 12 hour treatment) [fold] | increase in IκB-α levels as compared to (−)-EGCG (Jurkat T cells; 10 μM, 12 hour treatment) [%] | increase in p27 levels as compared to (−)-EGCG (Jurkat T cells; 10 μM, 12 hour treatment) [%] | levels of p27 protein (VA-13 cells; 12 hours) | increase of IκB-α protein levels (Jurkat T cells; treatment up to 12 hour) | increase of p27 levels (Jurkat T cells; treatment up to 12 hour) [fold] | levels of p27 protein (VA-13 cells; 36 hours)
O=C(OC1Cc2c(O)cc(O)cc2OC1c1cc(O)c(O)c(O)c1)c1cc(O)c(O)c(O)c1 (single isomer, unassigned; (+)) [(+)-EGCG] | 3.1 | 3.5 | 47 | ~30 | significantly increased levels of p27 protein |  |  | 
O=C(OC1Cc2c(O)cc(O)cc2OC1c1cc(O)c(O)c(O)c1)c1cc(O)c(O)c(O)c1 (single isomer, unassigned; (+)) [(+)-GCG] | 3.3 | 3.7 |  |  |  |  |  | 
O=C(O[C@@H]1Cc2c(O)cc(O)cc2O[C@@H]1c1cc(O)c(O)c(O)c1)c1cc(O)c(O)c(O)c1 [(−)-EGCG, (−)-epigallocatechin-3-gallate, reference compound] | 2.1 | 2.7 |  |  | significantly increased levels of p27 protein | up to 6 fold | 17 | accumulated p27 levels
O=C(N[C@@H]1Cc2c(O)cc(O)cc2O[C@@H]1c1cc(O)c(O)c(O)c1)c1cc(O)c(O)c(O)c1 [(−)-EGCG-amide, (−)-[2R,3R]-N-[5,7-Dihydroxy-2-(3,4,5-trihydroxyphenyl)-chroman-3-yl]-3,4,5-trihydroxybenzamide] |  |  |  |  | significantly increased levels of p27 protein | ≤ 8 fold |  | 
